Test results reported in patent US4381311A, “Antiinflammatory 4,5-diaryl-α-(polyhalomethyl)-2-thiophenemethanols” (E. I. Du Pont de Nemours and Company, priority 1981, dated 1983).

Test system: adjuvant-induced arthritis in rats
Assay: Established adjuvant-induced arthritis in rats (paw volume of uninjected left hind paw)
Format: in vivo, Charles River Lewis male rats
Settings: Rattus norvegicus, 168 h; oral gavage daily, 7 days; established adjuvant-induced arthritis, Lewis male rats; ED50% by inspection of dose-response regression lines; read-out: ED50% Decrease From Control Paw Volume
Description: A procedure for detecting and comparing the antiinflammatory activity of compounds in this series and standard drugs for which there is a good correlation with human efficacy is the adjuvant-induced arthritis test in rats.
The test procedure employed for determining antiinflammatory activity is described below.
ESTABLISHED ADJUVANT-INDUCED ARTHRITIS IN RATS
Charles River Lewis male rats (130-150 grams) are injected subcutaneously in plantar area of the right hind paw with 0.1 ml of adjuvant (Difco heat-killed, lyophilized Mycobacterium butyricum suspended in mineral oil 5 mg/ml). 20 Non-arthritic controls are injected with mineral oil. The animals are held for 2 weeks to allow development of arthritis. Paw volumes (uninjected, left hind paw) are measured and the adjuvant injected rats are culled and distributed to treatment groups of 10 of equal disease severity. Non-arthritic controls are distributed to 2 groups of 10. The rats are given oral doses of compound or PVA-Acacia (Polyvinyl Alcohol 1%, Gum Acacia, U.S.P. 5%, Methylparaben 0.5%) (10 ml/kg) by gavage on that day and on the 6 following days. One day after the last dose the paw volumes (uninjected, left hind paw) are measured using a Ugo Basile Volume Differential Meter Model 7101. [formula]
Dose-response regression lines of the % decrease are plotted on semi-log paper by visual fit and the ED50% decrease from control paw volume is determined by inspection.

`OC(c1cc(-c2ccc(F)cc2)c(-c2ccc(F)cc2)s1)(C(F)(F)F)C(F)(F)F` [Example 1, 4,5-Bis(4-fluorophenyl)-α,α-bis(trifluoromethyl)-2-thiophenemethanol] and `OC(c1cc(-c2ccc(F)cc2)c(-c2ccc(F)cc2)s1)(C(F)(F)F)C(F)(F)Cl` (stereo not drawn) [Example 10, 4,5-Bis(4-fluorophenyl)-α-chlorodifluoromethyl-α-trifluoromethyl-2-thiophenemethanol] are within 1.5-fold of each other in ED50: 10 mg/kg for the first, 6.8 mg/kg for the second.

`COc1ccc(-c2cc(C(O)(C(F)(F)F)C(F)(F)F)sc2-c2ccc(SC)cc2)cc1` [Example 4, 4-(4-Methoxyphenyl)-5-(4-methylthiophenyl)-α,α-bis(trifluoromethyl)-2-thiophenemethanol] and `OC(c1cc(-c2ccc(F)cc2)c(-c2ccc(Cl)cc2)s1)(C(F)(F)F)C(F)(F)F` [Example 5, 5-(4-Chlorophenyl)-4-(4-fluorophenyl)-α,α-bis(trifluoromethyl)-2-thiophenemethanol] are within 1.5-fold of each other in ED50: 10 mg/kg for the first, 9 mg/kg for the second.

First: OC(c1cc(-c2ccccc2)c(-c2ccccc2)s1)(C(F)(F)F)C(F)(F)F [Example 6]
Second: OC(c1cc(-c2ccc(F)cc2)c(-c2ccc(F)cc2)s1)(C(F)(F)Cl)C(F)(F)Cl [Example 8, 4,5-Bis(4-fluorophenyl)-α,α-bis(chlorodifluoromethyl)-2-thiophenemethanol]
The ED50 of the first is 4.7-fold higher: 21 mg/kg for the first, 4.5 mg/kg for the second.

Compared with `CC(O)(c1cc(-c2ccc(F)cc2)c(-c2ccc(F)cc2)s1)C(F)(F)F` (stereo not drawn) [Example 7, 4,5-Bis(4-fluorophenyl)-α-methyl-α-trifluoromethyl-2-thiophenemethanol], `OC(c1cc(-c2ccc(F)cc2)c(-c2ccc(F)cc2)s1)(C(F)F)C(F)(F)F` (stereo not drawn) [Example 9] is 3.3-fold higher in ED50: 5.5 mg/kg for the first, 18 mg/kg for the second.

`Cc1c(C(O)(C(F)(F)Cl)C(F)(F)Cl)sc(-c2ccc(F)cc2)c1-c1ccc(F)cc1` [Example 27, 3-Methyl-4,5-bis(4-fluorophenyl)-α,α-bis(chlorodifluoromethyl)-2-thiophenemethanol] and `CCCCC1C(=O)N(c2ccccc2)N(c2ccccc2)C1=O` [Phenylbutazone, reference compound] are within 1.5-fold of each other in ED50: 12 mg/kg for the first, 10 mg/kg for the second.

Same assay, conditions: Rattus norvegicus, po, 168 h, read-out: ED50% Decrease From Control Paw Volume

Compared with `CC(=O)Oc1ccccc1C(=O)O` [Aspirin, reference compound], `COc1ccc2c(c1)c(CC(=O)O)c(C)n2C(=O)c1ccc(Cl)cc1` [Indomethacin, reference compound] is 1100-fold lower in ED50: 270 mg/kg for the first, 0.25 mg/kg for the second.

Same assay, conditions: daily oral dose 27 mg/kg, 7 days; established adjuvant-induced arthritis, rats; p < 0.1 (Ex. 2), p < 0.001 (Ex. 3) vs control, Student's t test

Compared with `OC(c1cc(-c2ccc(F)cc2)c(-c2ccc(F)cc2)s1)(C(F)(F)Cl)C(F)(Cl)Cl` (stereo not drawn) [Example 2], `COc1ccc(-c2cc(C(O)(C(F)(F)F)C(F)(F)F)sc2-c2ccc(OC)cc2)cc1` [Example 3] is higher in “Percent Decrease From Control Paw Volume” value: 20% for the first, 47% for the second.

Same assay, conditions: daily oral dose 51 mg/kg, 7 days; established adjuvant-induced arthritis, rats; p < 0.001 vs control, Student's t test

In the case of `CC(=O)OC(c1cc(-c2ccc(F)cc2)c(-c2ccc(F)cc2)s1)(C(F)(F)Cl)C(F)(F)Cl` [Example 29, 4,5-Bis(4-fluorophenyl)-α,α-bis(chlorodifluoromethyl)-2-thiophenemethanol, acetate], the “Percent Decrease From Control Paw Volume” value is reported as 31%.
